Data set [1] deals with MCF7. Description: Cytotoxicity against human MCF7 cells at 20 ug/mL by sulforhodamine B assay. In kind it is functional.
The subject of data set [2] is DU-145. Kind of data set: Cytotoxicity against human DU145 cells at 20 ug/mL by sulforhodamine B assay. The data set is classed as functional.
The subject of data set [3] is LNCaP. Description: Cytotoxicity against human LNCAP cells at 20 ug/mL by sulforhodamine B assay. The data set is classed as functional.
Data set [4] has as its system KB. Kind of data set: Cytotoxicity against human KB cells at 20 ug/mL by sulforhodamine B assay. In kind it is functional.
Data set [5] in a line: Cytotoxicity against multi drug-resistant human KBVIN cells at 20 ug/mL by sulforhodamine B assay. The data set is classed as functional.
For data set [6], the system named is 1A9. Kind of data set: Cytotoxicity against human 1A9 cells at 20 ug/mL by sulforhodamine B assay. The data set is classed as functional.
The subject of data set [7] is PC-3. Kind of data set: Cytotoxicity against human PC3 cells at 20 ug/mL by sulforhodamine B assay. The data set is classed as functional.
Data set [8] has as its system A549. Kind of data set: Cytotoxicity against human A549 cells at 20 ug/mL by sulforhodamine B assay. In kind it is functional.
Data set [9] deals with A549. Description: Cytotoxicity against human A549 cells by sulforhodamine B assay. The data set is classed as functional. The following applies: read-out: ED50 (the source's name).
The test system of a further data set is HUVEC. Description: Antiangiogenesis activity against HUVEC cells. In kind it is functional. The following applies: Homo sapiens, read-out: ED50 (the source's name).
The subject of data set [10] is MCF7. Kind of data set: Cytotoxicity against human MCF7 cells by sulforhodamine B assay. The following applies: read-out: ED50 (the source's name). The data set is classed as functional.
Data set [11] deals with LNCaP. Description: Cytotoxicity against human LNCAP cells by sulforhodamine B assay. The data set is classed as functional. Conditions: read-out: ED50 (the source's name).
In data set [12] the test system is KB. Description: Cytotoxicity against human KB cells by sulforhodamine B assay. In kind it is functional. The following applies: read-out: ED50 (the source's name).
For data set [13], the system named is 1A9. Kind of data set: Cytotoxicity against human 1A9 cells by sulforhodamine B assay. The data set is classed as functional. Conditions: read-out: ED50 (the source's name).
In data set [14] the test system is DU-145. Kind of data set: Cytotoxicity against human DU145 cells by sulforhodamine B assay. The data set is classed as functional. Conditions: read-out: ED50 (the source's name).
Data set [15] concerns PC-3. Kind of data set: Cytotoxicity against human PC3 cells by sulforhodamine B assay. In kind it is functional. The following applies: read-out: ED50 (the source's name).
The nature of data set [16]: Cytotoxicity against human MRC5 cells by sulforhodamine B assay. The following applies: read-out: ED50 (the source's name). The data set is classed as cell-based.
Data set [17] in a line: Cytotoxicity against human MRC5 cells at 10 ug/mL by sulforhodamine B assay. In kind it is cell-based. The following applies: read-out: Inhibition.
Data set [18] in a line: (§1) Cytotoxicity against multi drug-resistant human KBVIN cells by sulforhodamine B assay. In kind it is functional. Conditions: read-out: ED50 (the source's name).
The test system of the next data set is KBVIN. The data set is described as §1. In kind it is functional.

Active and inactive are the calls of the source. The calls are words filed in the database; no cut-off is given here.

These results are taken from ChEMBL document CHEMBL1139194, “Antitumor agents. 256. Conjugation of paclitaxel with other antitumor agents: evaluation of novel conjugates as cytotoxic agents” (Bioorg Med Chem Lett, 2007).

Regarding `CC1(C)[C@@H](O)CC[C@]2(C)[C@H]3C(=O)C=C4[C@@H]5C[C@@](C)(C(=O)O)CC[C@]5(C)CC[C@@]4(C)[C@]3(C)CC[C@@H]12` [ENOXOLONE], the inhibition at 20 µg/mL (with MCF7 [1]; in the data set on DU-145 [2]; with LNCaP [3]; in the data set with KB [4]; in data set [5]; in the data set on 1A9 [6]) was below 50% throughout. For the same molecule, the inhibition at 20 µg/mL with PC-3 [7] and in the data set on A549 [8] was below 50% throughout.
Take `COc1cc2c(c(OC)c1OC(=O)CCC(=O)O[C@@H](C(=O)O[C@H]1C[C@@]3(O)[C@@H](OC(=O)c4ccccc4)[C@@H]4[C@]5(OC(C)=O)CO[C@@H]5C[C@H](O)[C@@]4(C)C(=O)[C@H](OC(C)=O)C(=C1C)C3(C)C)[C@@H](NC(=O)c1ccccc1)c1ccccc1)-c1ccc(SC)c(=O)cc1[C@@H](NC(C)=O)CC2`: the EC50 with A549 [9] came to 23.2 nM; in the data set with HUVEC it was 9.33 nM; in the data set on MCF7 [10], 24.7 nM; with LNCaP [11] it was 19.5 nM; with KB [12], 17 nM; in the data set with 1A9 [13], 10.3 nM. In addition, the EC50 turned out to be 29.8 nM in the data set on DU-145 [14] and 71.8 nM in the data set with PC-3 [15]. For the same molecule, the inhibition at 20 µg/mL in [5] is below 50%.
On to `COc1cc([C@@H]2c3cc4c(cc3[C@@H](Nc3ccc(C(=O)NCCC(=O)O[C@H]5C[C@H]6OC[C@@]6(OC(C)=O)[C@H]6[C@H](OC(=O)c7ccccc7)[C@]7(O)C[C@H](OC(=O)[C@H](O)[C@@H](NC(=O)c8ccccc8)c8ccccc8)C(C)=C([C@@H](OC(C)=O)C(=O)[C@]56C)C7(C)C)cc3)[C@H]3COC(=O)[C@H]23)OCO4)cc(OC)c1O`, for which the EC50 with A549 [9] was 45.6 nM; in the data set with MCF7 [10] it was 43.9 nM; with LNCaP [11], 22.1 nM; in the data set on KB [12], 31.6 nM; in the data set on 1A9 [13] it was 20.7 nM; in the data set on DU-145 [14] it was 83.4 nM. The EC50 in the data set on PC-3 [15] was found to be 86.3 nM. For the same molecule, the CC50 in data set [16] is 3280 nM. Also, the inhibition at 20 µg/mL in [5] is below 50%.
With `COc1cc([C@@H]2c3cc4c(cc3[C@@H](Nc3ccc(C(=O)NCCC(=O)O[C@@H](C(=O)O[C@H]5C[C@@]6(O)[C@@H](OC(=O)c7ccccc7)[C@@H]7[C@]8(OC(C)=O)CO[C@@H]8C[C@H](O)[C@@]7(C)C(=O)[C@H](OC(C)=O)C(=C5C)C6(C)C)[C@@H](NC(=O)c5ccccc5)c5ccccc5)cc3)[C@H]3COC(=O)[C@H]23)OCO4)cc(OC)c1O`, the EC50 is 10.1 nM in the data set with A549 [9]; 4.93 nM with HUVEC; 6.4 nM in the data set on MCF7 [10]; 4.2 nM with LNCaP [11]; 8.4 nM in the data set with KB [12]; 2.9 nM with 1A9 [13]. Moreover, the EC50 in the data set on DU-145 [14] came out at 8.6 nM; in data set [18], 9960 nM; in the data set on PC-3 [15], 12.1 nM. For the same molecule, the cytotoxicity at 10 ug/mL in [17] is below 50%.
For the molecule `COc1cc2c(c(OC)c1OC(=O)CCC(=O)O[C@@H](C(=O)O[C@H]1C[C@@]3(O)[C@@H](OC(=O)c4ccccc4)[C@@H]4[C@]5(OC(C)=O)CO[C@@H]5C[C@H](O)[C@@]4(C)C(=O)[C@H](OC(C)=O)C(=C1C)C3(C)C)[C@@H](NC(=O)c1ccccc1)c1ccccc1)-c1ccc(OC)c(=O)cc1[C@@H](NC(C)=O)CC2`, the EC50 with A549 [9] came to 27.3 nM; in the data set on HUVEC it was 13.8 nM; with MCF7 [10], 26.5 nM; in the data set on LNCaP [11] it was 12.9 nM; with KB [12] it was 19 nM; in the data set on 1A9 [13], 10.6 nM. For the same molecule, the EC50 in the data set with DU-145 [14] came out at 31.9 nM; in the data set with PC-3 [15], 50.7 nM. In data set [5], the inhibition at 20 µg/mL was below 50%.
On to `COc1cc([C@@H]2c3cc4c(cc3[C@@H](Nc3ccc(C(=O)NCCCC(=O)O[C@H]5C[C@H]6OC[C@@]6(OC(C)=O)[C@H]6[C@H](OC(=O)c7ccccc7)[C@]7(O)C[C@H](OC(=O)[C@H](O)[C@@H](NC(=O)c8ccccc8)c8ccccc8)C(C)=C([C@@H](OC(C)=O)C(=O)[C@]56C)C7(C)C)cc3)[C@H]3COC(=O)[C@H]23)OCO4)cc(OC)c1O`, for which the EC50 with A549 [9] is 1320 nM; in the data set with MCF7 [10], 125 nM; in the data set on KB [12], 347 nM; in the data set on 1A9 [13], 104 nM. The outcome in the data set with KBVIN was inactive.
